This is an account of results in patent publication EP2253308A1, “Pharmaceutical composition comprising microbubbles for targeted tumor therapy” (Ludwig-Maximilians-Universität München, priority 2009, dated 2010).

The series relates to 293/KDR human kidney carcinoma tissue cultures. The series can be described thus: In vitro anti-proliferative efficacy, cell viability assay (formazan absorption) with or without ultrasound. It is filed as cell-based. The conditions noted are these: effect not affected by the application of ultrasound; 24 hours incubation; % of untreated cells. As for the experimental part: The anti-proliferative efficacy of doxorubicin-loaded microbubbles according to Example 2 was determined in an in vitro experiment using 293/KDR human kidney carcinoma tissue cultures.
First, the cells were cultivated in 10% fetal calf serum activated Dulbecco's Modified Eagle Medium. Prior to the experiment, the cells were brought in suspension by trypsin/EDTA solution. A cell suspension of 200 µl containing about 6 x 10^4 cells was transferred into each well of a 96-well plate (Greiner Bio-One GmbH, Germany) and subsequently admixed with an aqueous solution of either doxorubicin, doxorubicin-loaded liposomes, or doxorubicin-loaded microbubbles (n = 10). The corresponding blank samples were prepared without doxorubicin (see Figure 3). Ultrasound with a frequency of 1 MHz, an intensity of 2 W/cm^2, and a duty cycle of 50% was applied directly onto each well using Sonitron 2000 (Rich-Mar Inc., USA). In order to avoid the presence of standing waves, the well plate was under laid with an absorbing gel pad.
After 24 hours of incubation the cell metabolic activity was measured using a cell viability assay. […] Purple formazan produced by viable cells could be measured by its UV/Vis absorption using FluostarOmega plate reader (BMG Labtech GmbH, Offenburg, Germany) at a wavelength of 590 nm (measurement) and a wavelength of 630 nm (reference). […]

Molecules are shown by their SMILES.

For the compound `COc1cccc2c1C(=O)c1c(O)c3c(c(O)c1C2=O)C[C@@](O)(C(=O)CO)C[C@@H]3O[C@H]1C[C@H](N)[C@H](O)[C@H](C)O1` [free doxorubicin], the cell viability was 62-64%.
